Our source for the Activity and MST values is ChEMBL document CHEMBL3272086, “Antimalarials. 9. Methylthio- and methylsulfonyl-substituted 9-phenanthrenemethanols” (1976).

For assay [1], the system named is Plasmodium berghei. Kind of assay: Antimalarial activity against Plasmodium berghei infected in mouse assessed as cure from disease at 320 mg/kg, sc administered 72 hrs post infection as single dose measured post 60 days. On the set-up: dose 320 mg/kg. The format is functional, organism-based.
Assay [2] relates to Plasmodium berghei. Kind of assay: Antimalarial activity against Plasmodium berghei infected in mouse assessed as change in mean survival time at 20 mg/kg, sc administered 72 hrs post infection as single dose (reference value: 6.2 days). Conditions: route subcutaneous. The format is functional.
Assay [3] relates to Plasmodium berghei. In words: Antimalarial activity against Plasmodium berghei infected in mouse assessed as change in mean survival time at 40 mg/kg, sc administered 72 hrs post infection as single dose (reference value: 6.2 days). The assay is classed as functional. Conditions: route subcutaneous.
Assay [4] deals with Plasmodium berghei. Kind of assay: Antimalarial activity against Plasmodium berghei infected in mouse assessed as change in mean survival time at 80 mg/kg, sc administered 72 hrs post infection as single dose (reference value: 6.2 days). The format is functional. Conditions: route subcutaneous.
Assay [5] concerns Plasmodium berghei. Kind of assay: Antimalarial activity against Plasmodium berghei infected in mouse assessed as cure from disease at 160 mg/kg, sc administered 72 hrs post infection as single dose measured post 60 days. The assay is classed as functional, organism-based. On the set-up: dose 160 mg/kg.
Assay [6] concerns Plasmodium berghei. In words: Antimalarial activity against Plasmodium berghei infected in mouse assessed as change in mean survival time at 160 mg/kg, sc administered 72 hrs post infection as single dose (reference value: 6.2 days). Conditions: route subcutaneous. The format is functional.
Assay [7] has as its system Plasmodium berghei. Kind of assay: Antimalarial activity against Plasmodium berghei infected in mouse assessed as change in mean survival time at 320 mg/kg, sc administered 72 hrs post infection as single dose (reference value: 6.2 days). The format is functional. Conditions: route subcutaneous.

Calls of active or inactive are those of the source. No cut-off for these calls is given here.

`CCCCN(CCCC)CC(O)c1cc2cc(S(C)(=O)=O)ccc2c2c(Cl)c(Cl)ccc12.Cl` (stereo not given): in the assay with Plasmodium berghei [1], the outcome was Active. Moreover, the MST in the assay on Plasmodium berghei [2] worked out at 4.7 days; in the assay with Plasmodium berghei [3], 7.7 days; with Plasmodium berghei [4], 14.9 days.
With `CCCCN(CCCC)CC(O)c1cc2cc(SC)ccc2c2cc(Cl)c(Cl)cc12.Cl` (stereo not given), the values for the MST in the assay on Plasmodium berghei [2] and in the assay with Plasmodium berghei [3] were 9.1 days and 10.3 days, respectively. For the same molecule, the outcome in the assay on Plasmodium berghei [5] was Active.
`CCCCN(CCCC)CC(O)c1cc2cc(Br)ccc2c2cc(S(C)(=O)=O)ccc12.Cl` (stereo not given): the MST in the assay with Plasmodium berghei [2] came to 0.6 days; in the assay with Plasmodium berghei [3], 1.2 days; in the assay with Plasmodium berghei [4], 10.8 days.
`CCCCN(CCCC)CC(O)c1cc2cc(SC)ccc2c2c(Cl)c(Cl)ccc12.Cl` (stereo not given): the MST with Plasmodium berghei [2] was 9.3 days; in the assay on Plasmodium berghei [3], 10.7 days.
On to `CCCCN(CCCC)CC(O)c1cc2cc(SC)ccc2c2cc(SC)ccc12.Cl` (stereo not given), for which the MST turned out to be 16.1 days in the assay on Plasmodium berghei [6], 0.7 days in the assay with Plasmodium berghei [2], 5.9 days with Plasmodium berghei [3] and 11.5 days with Plasmodium berghei [4]. In addition, the outcome with Plasmodium berghei [1] was Active.
As to `CCCCN(CCCC)CC(O)c1cc2cc(S(C)(=O)=O)ccc2c2cc(Cl)c(Cl)cc12.Cl` (stereo not given), the result in the assay with Plasmodium berghei [1] was Active. In addition, the MST in the assay with Plasmodium berghei [2] was determined as 4.9 days; in the assay on Plasmodium berghei [3] it was 8.5 days.
Take `CCCCN(CCCC)CC(O)c1cc2cc(Br)ccc2c2cc(SC)ccc12.Cl` (stereo not given): the results for the MST in the assay on Plasmodium berghei [2], in the assay on Plasmodium berghei [3] and with Plasmodium berghei [4] were 2.8 days, 8.6 days and 9.5 days, respectively.
Take `CCCCN(CCCC)CC(O)c1cc2cc(Cl)cc(Cl)c2c2cc(SC)ccc12.Cl` (stereo not given): the result with Plasmodium berghei [1] and in the assay on Plasmodium berghei [5] was Active. In addition, the MST in the assay on Plasmodium berghei [2] turned out to be 10.5 days.
Regarding `CCCCN(CCCC)CC(O)c1cc2cc(S(C)(=O)=O)ccc2c2cc(S(C)(=O)=O)ccc12.Cl` (stereo not given), the MST with Plasmodium berghei [6] stood at 0.3 days; in the assay with Plasmodium berghei [3] it was 0.1 days; with Plasmodium berghei [7], 0.3 days; in the assay on Plasmodium berghei [4] it was 0.3 days.
